{
  "source": "patent US20240327446A1",
  "about": "“DEUTERATED NUCLEOSIDE COMPOUNDS AND USE THEREOF” (MEDSHINE DISCOVERY INC., priority 2022, published 2024)",
  "key": {"[1]": {"assay": "in vitro", "type": "cell-based", "conditions": "human", "description": "(§1) To detect the in vitro anti-human coronavirus (HCOV) 229E activity of the compound using the cytopathic effect (CPE) assay, and simultaneously evaluate the cytotoxicity of the compound.\n(§2) The test compound was prepared as a 20 mM stock solution using DMSO. The initial testing concentration of the test compound was 50 μM, tested at 8 concentrations with 4-fold gradient dilutions, in duplicate wells. The control compound Remdesivir would be provided by WuXi AppTec. Remdesivir would be tested at 8 concentrations with 3-fold gradient dilutions, in duplicate wells.\n(§3) MRC5 cells and coronavirus HCoV 229E were purchased from ATCC. MRC5 cells were cultured in EMEM (Sigma) culture medium supplemented with 10% fetal bovine serum (Excell), 1% double antibiotic (Hyclone), 1% L-glutamine (Gibco), and 1% non-essential amino acids (Gibco). […]\n(§4) Cells were seeded in a 96-well microplate at a specific density (Table 1) and cultured overnight in a 5% CO2, 37° C. incubator. […] Cell viability was detected using the CellTiter Glo (Promega) cell viability assay kit. […]\nCell viability (%)=(test well reading value−average value of culture medium control)/(average value of cell control−average value of culture medium control)×100 […]"}, "[2]": {"test_system": "human coronavirus (HCoV) 229E", "assay": "In vitro anti-coronavirus activity test, cytopathic effect (CPE) assay", "type": "cell-based, human coronavirus (HCoV) 229E in MRC5 cells", "conditions": "MRC5, 72 h, read-out: EC50 (median effective concentration)", "description": "as §1, §2, §3, §4\nInhibition rate (%)=(test well reading value−average value of virus control)/(average value of cell control−average value of virus control)×100 […]"}},
  "data": [
    {"smiles": "[2H][C@@]1(O)[C@H](O)[C@@H](COC(=O)C(C)C)O[C@@]1(C#N)c1ccc2c(N)ncnn12", "note": "[Compound 1]", "values": [
      {"measurement": "CC50 at 3 days", "setting": "[1]", "result": "> 50", "unit": "µM"},
      {"measurement": "EC50", "setting": "[2]", "result": 220, "unit": "nM"}
    ]}
  ]
}
